Assay results from patent publication US4285956A, “Xanthene and thioxanthene derivatives, compositions thereof and treatment therewith” (priority 1978, dated 1981).
Entries after “also recorded” stand apart in the source; their conditions may differ.

Columns and labels:
[1] = Neuroleptic effect: duration and strength (remarks of Table 2); type: in vivo; details: in words; for Duration (remarks, words): duration of neuroleptic effect; for Strength of effect (remarks, words): strength of neuroleptic effect
Excerpt: The pharmacological testing of the novel xanthones and thioxanthenes of Formula I consisted of standard and reliable tests. […]

[2] = Methylphenidate antagonism (mice biting corrugated paper); type: in vivo; details: mice, i.p.; for ED50: Mus musculus, ip
Description: Methylphenidate antagonism (ED50 mg/kg i.p.)
Perspex observation cages without bottom and lid, consisting of 5 sections each measuring 12×25×30 cm. White corrugated paper. Mice, male, 18-25 g.
The test substance is given i.p. in the doses 0, 1/8, 1/32 and 1/128 of the determined "i.p. LD50". 3×2 mice are used for each dose level. Two or 24 hours after injection of test substance, methylphenidate, 60 mg/kg, is injected s.c. After administration of methylphenidate the mice are placed in the observation cages, 2 in each cage, where they remain for exactly 1 hour. The cages are placed on corrugated paper, the corrugations facing upwards. It is examined whether the mice have been biting the corrugated paper or not. […] If one or more of the control pairs have not been biting, the test has to be repeated on a new set of mice.
The result is stated in fractions: 0/3, 1/3, 2/3 and 3/3 where 0, 1, 2 and 3 are the number of pairs which have not been biting on receipt of the dose in question.
The results are calculated as the dose (ED50), which causes antagonism in 50% of the test animals.

[3] = Catalepsy wire mesh, rat, max.; type: in vivo, rats; details: for ED50: Rattus norvegicus, sc, rats, s.c., strongest effect within first 6 hours, read-out: Catalepsy wire mesh, rat, max. ED50; for Cataleptic activity: in words
Description: Catalepsy wire mesh, rat, max. (ED50 mg/kg s.c.)
A vertical wire netting (50 cm×49 cm). The meshes (openings) of the netting are square (1 cm×1 cm). The wire diameter is 2 mm. Stop watch. Rats, male, 180-200 g.
The animals are labeled and used in groups of five. The test substance is injected subcutaneously (s.c.) (5 ml/kg) at 4 dose levels selected from the fixed dose scale.
The animals are placed in the middle of the vertical wire netting 60, 120, 180, 240, 300 and 360 minutes after injection of the test compound. The animals are considered cataleptic when they remain immobile during a period of 15 seconds. This cataleptic reaction is designated +. If the rats are "atonic" and passively slide down the wire mesh they are considered not cataleptic. If the animals climb up and down the wire mesh they are nor cataleptic. In both situations the designation - is used.

[4] = Amphetamine antagonism (stereotypy in rats); type: in vivo; details: Rattus norvegicus, ip, 24 h, read-out: Amphetamine antagonism ED50
[5] = methylphenidate 60 mg/kg s.c. 2 h after test substance, read-out: Methylphenidate antagonism ED50, 2 h
[6] = methylphenidate 60 mg/kg s.c. 24 h after test substance, read-out: Methylphenidate antagonism ED50, 24 h

| Compound | Duration (remarks, words) [1] | Strength of effect (remarks, words) [1] | Methylphenidate antagonism ED50, 2 h ([2]; methylphenidate 60 mg/kg s.c. 2 h after test substance) [mg/kg] | Methylphenidate antagonism ED50, 24 h ([2]; methylphenidate 60 mg/kg s.c. 24 h after test substance) [mg/kg] | ED50 [3] [mg/kg] | Cataleptic activity [3] | ED50 [4] [mg/kg] | ED50 [2, 5] [mg/kg] | ED50 [2, 6] [mg/kg] |
| --- | --- | --- | --- | --- | --- | --- | --- | --- | --- |
| 1-(2-Oxazolidinon-3-yl)ethyl)-4-(2-fluoro-6-methyl-9-thioxanthenylidene)-piperidine [Lu-15-062] | short acting | moderately strong | 0.51 | > 40 | – | – | – | – | – |
| O[C@H]1CCC[C@H](CN2CCC(=C3c4ccc(F)cc4Sc4ccc(C(F)(F)F)cc43)CC2)C1 (relative stereo) [Lu 15-030, 1-(trans-3-hydroxycyclohexylmethyl)-4-(2-trifluoromethyl-6-fluoro-9-thioxanthenylidene)-piperidine] | long acting | very strong | – | – | 0.39 | have a cataleptic activity | 0.88 | 0.28 | 0.05 |
| O[C@@H]1CC[C@H](CN2CCC(=C3c4ccccc4Sc4ccc(Cl)cc43)CC2)C[C@H]1O (relative stereo) [Lu 15-041, 1-(3-trans-4-cis-dihydroxycyclohexylmethyl)-4-(2-chloro-9-thioxanthenylidene)piperidine] | moderately long acting | strong | – | – | – | – | < 0.31 | 0.62 | 3.6 |
| O[C@@H]1CC[C@H](CN2CCC(=C3c4ccc(F)cc4Sc4ccc(C(F)(F)F)cc43)CC2)C[C@H]1O (relative stereo) [Lu 15-052, 1-(3-trans-4-cis-dihydroxycyclohexylmethyl)-4-(2-trifluoromethyl-6-fluoro-9-thioxanthenylidene)-piperidine] | long acting | strong; also recorded: very strong | – | – | 0.026 | have a cataleptic activity | 0.9 | 0.32 | 0.06 |
| O[C@@H]1CC[C@H](CN2CCC(=C3c4ccc(F)cc4Sc4ccc(Cl)cc43)CC2)C[C@H]1O (relative stereo) [Lu 15-070, 1-(3-trans-4-cis-dihydroxycyclohexylmethyl)-4-(2-chloro-6-fluoro-9-thioxanthenylidene)-piperidine] | moderately long acting | – | – | – | – | – | – | 0.51 | 0.5 |
| O[C@H]1CCCC[C@H]1CN1CCC(=C2c3ccc(F)cc3Sc3ccc(C(F)(F)F)cc32)CC1 (relative stereo) [Lu 15-138, 1-(cis-2-hydroxycyclohexylmethyl)-4-(2-trifluoromethyl-6-fluoro-9-thioxanthenylidene)-piperidine] | long acting | strong | – | – | – | – | 1.7 | 1.3 | 0.15 |
| O[C@H]1CC[C@H](CN2CCC(=C3c4ccccc4Sc4ccc(Cl)cc43)CC2)CC1 [Lu 14-047, 1-(trans-4-hydroxycyclohexylmethyl)-4-(2-chloro-9-thioxanthenylidene)-piperidine] | short acting | strong | – | – | 3.5 | – | 0.32 | 0.59 | > 20 |
| Cc1ccc2c(c1)C(=C1CCN(CCN3CCOC3=O)CC1)c1ccc(F)cc1S2 [Lu 14-070, 1-(2-(2-Oxazolidinon-3-yl)ethyl)-4-(2-methyl-6-fluoro-9-thioxanthenylidene)-piperidine] | short acting | moderately strong | – | – | 1.8 | – | 1.3 | 0.32 | > 40 |
| Cc1ccc2c(c1)C(=C1CCN(C[C@H]3CC[C@H](O)CC3)CC1)c1ccc(F)cc1S2 [Lu 14-082, 1-(trans-4-hydroxycyclohexylmethyl)-4-(2-methyl-6-fluoro-9-thioxanthenylidene)-piperidine] | short acting | moderately strong | – | – | – | – | – | 0.79 | > 10 |
| Cc1ccc2c(c1)Sc1ccc(F)cc1C2=C1CCN(C[C@H]2CC[C@H](O)CC2)CC1 [Lu 14-090, 1-(trans-4-hydroxycyclohexylmethyl)-4-(2-fluoro-6-methyl-9-thioxanthenylidene)-piperidine] | short acting | moderately strong | – | – | – | – | – | 1.25 | 32 |
| O[C@H]1CC[C@H](CN2CCC(=C3c4ccc(F)cc4Sc4ccc(Cl)cc43)CC2)CC1 [Lu 14-114, 1-(trans-4-hydroxycyclohexylmethyl)-4-(2-chloro-6-fluoro-9-thioxanthenylidene)-piperidine] | short acting | strong | – | – | – | – | 0.35 | 0.1 | 6.6 |
| OC1COC(CN2CCC(=C3c4ccccc4Sc4ccc(Cl)cc43)CC2)OC1 (stereo not drawn) [Lu 14-140, 1-(5-hydroxy-1,3-dioxan-2-yl)methyl-4-(2-chloro-9-thioxanthenylidene)-piperidine] | short acting | strong | – | – | – | – | – | 0.77 | > 40 |
| O[C@H]1CC[C@@H](CN2CCC(=C3c4ccccc4Sc4ccc(Cl)cc43)CC2)CC1 [Lu 15-014, 1-(Cis-4-hydroxycyclohexylmethyl)-4-(2-chloro-9-thioxanthenylidene)-piperidine] | short acting | strong | – | – | 2.5 | – | – | 0.2 | > 10 |
| Fc1ccc2c(c1)Sc1ccc(C(F)(F)F)cc1C2=C1CCN(CC2CCOCC2)CC1 [Lu 15-031, 1-(4-tetrahydropyranylmethyl)-4-(2-trifluoromethyl-6-fluoro-9-thioxanthenylidene)piperidine] | long acting | moderately strong | – | – | – | – | 1.3 | 0.52 | 0.55 |
| CC1(O)CCC(CN2CCC(=C3c4ccc(F)cc4Sc4ccc(C(F)(F)F)cc43)CC2)CC1 (stereo not drawn) [Lu 15-048, 1-(4-hydroxy-4-methylcyclohexylmethyl)-4-(2-trifluoromethyl-6-fluoro-9-thioxanthenylidene)-piperidine] | long acting | strong | – | – | – | – | < 0.31 | 1.3 | 0.13 |
| O[C@H]1CC[C@H](CN2CCC(=C3c4ccc(F)cc4Sc4cc(F)ccc43)CC2)CC1 [Lu 15-062, 1-(trans-4-hydroxycyclohexylmethyl)-4-(3,6-di-fluoro-9-thioxanthenylidene)-piperidine] | short acting | moderately strong | – | – | – | – | 0.85 | 0.77 | > 10 |
| CC(=O)N[C@H]1CC[C@H](CN2CCC(=C3c4ccc(F)cc4Sc4ccc(C(F)(F)F)cc43)CC2)CC1 [Lu 16-043] | long acting | relatively strong | – | – | > 20 | – | – | > 10 | 0.42 |
| CS(=O)(=O)c1ccc2c(c1)C(=C1CCN(C[C@H]3CC[C@H](O)CC3)CC1)c1ccccc1S2 [Lu 16-066, 1-(Trans-4-hydroxycyclohexylmethyl)-4-(2-methylsulfonyl-9-thioxanthenylidene)piperidine] | short acting | moderately strong | – | – | 0.25 | – | – | 0.73 | > 10 |
| N[C@H]1CC[C@H](CN2CCC(=C3c4ccccc4Sc4ccc(Cl)cc43)CC2)CC1 [Lu 16-081] | short acting | moderately strong | – | – | – | – | – | 0.5 | ~10 |
| CN(C)S(=O)(=O)c1ccc2c(c1)C(=C1CCN(C[C@H]3CC[C@H](O)CC3)CC1)c1ccc(F)cc1S2 [Lu 16-107, 1-(Trans-4-hydroxycyclohexylmethyl)-4-(2-dimethylsulfamoyl-6-fluoro-9-thioxanthenylidene)piperidine] | long acting | moderately strong | – | – | 0.28 | – | – | 1.9 | 0.76 |
